Laboratory results from US20250243176A1, “(S)-1-(1-ACRYLOYLPIPERIDIN-3-YL)-2-FLUORO-5,6,7,8,9,10-HEXAHYDROCYCLO HEPTA[B]INDOLE-4-CARBOXAMIDE, AND RELATED CRYSTALLINE FORMS, COMPOSITIONS, AND METHODS THEREOF” (GB005, Inc., priority 2021, published 2025).
Values after ≈ are worked out from the molar mass of the structure shown. “Also recorded” adds a separate entry of the source. Values belong to the compound of their own block, whether it stands above or below them.

How the values were obtained:
Assay type in all cases: physicochemical
[1] = Dynamic vapor sorption (DVS)
Description: Moisture sorption/desorption data was collected on a Vsorp Dynamic Moisture Sorption Analyzer (ProUmid GmbH & Co. KG, Germany). The sample was placed into a tared sample chamber and automatically weighed. • Sample temperature 25° C. • Cycle: Full cycle • Adsorption 0, 10, 20, 30, 40, 50, 60, 70, 80, 90 • Desorption 80, 70, 60, 50, 40, 30, 20, 10, 0

[2] = Solubility testing in bio-relevant media (Form III); settings: 37° C.; for Solubility / solubility at 1 h: 1 h; for Solubility / solubility at 4 h: 4 h; for Solubility / solubility at 24 h: 24 h; for solubility at 1 h / solubility at 4 h / solubility at 24 h: thermodynamic from solid
Description: FaSSIF Buffer Solution: 6 mL 0.2 M NaOH, 388.7 mg of NaH2PO4, and 608.2 mg of NaCl were dissolved and diluted to 100 mL with water. The pH was 6.51. FaSSIF Media: 34.56 mg of SIF powder was dissolved in 15 mL of FaSSIF buffer solution. The solution was stirred and equilibrated at ambient temperature with light protection for 2 hours. SIF powder was purchased from Biorelevant.com.
FeSSIF Buffer Solution: 408.4 mg of NaOH, 868.5 mg of acetic acid, and 1.1802 g of NaCl were dissolved and diluted to 100 mL with water. The pH of the solution was 4.98. FeSSIF Media: 168.42 mg of SIF powder was dissolved in 15 mL of FeSSIF buffer solution. The solution was protected from light.
FaSSGF Buffer Solution: 222 mg of NaCl were dissolved with water, then added 1N HCl adjust the pH to 1.6. […] The solution was stirred and equilibrated at ambient temperature with light protection for 2 hours.
FaSSIF-V2 Buffer Solution: 154.4 mg NaOH, 246.7 mg of maleic acid and 445.6 mg of NaCl were dissolved and diluted to 100 mL with water. The pH was 6.51. FaSSIF-V2 Media: 28.64 mg of FaSSIF-V2 powder (purchased from Biorelevant.com) was dissolved in 8 mL of FaSSIF-V2 buffer solution. The solution was stirred and equilibrated at ambient temperature with light protection for 2 hours.
FeSSIF-V2 Buffer Solution: […] of NaOH, 710 mg of maleic acid, and 814.4 mg of NaCl were dissolved and diluted to 100 mL with water. The pH of the solution was 5.8. FeSSIF-V2 Media: 156.16 mg of FeSSIF-V2 powder was dissolved in 8 mL of FeSSIF-V2 buffer solution. The solution was protected from light.
Samples were prepared in duplicate for each medium. The suspensions were shaken at 37° C. for up to 24 hours.

[3] = Grinding (mechanical treatment) of Form III
Description: Polymorph screening of Compound 1 was conducted using various crystallization methods, including slurry, cooling and evaporative crystallization, anti-solvent precipitation, thermal and mechanical treatment.

[4] = Competition slurry / inter-conversion study of Form I and Form III; settings: competition slurry of Form I and Form III in water and heptane; RT to 80° C.
Description: Equal amounts of Form I and Form III were mixed in water and heptane to form slurries and stirred at RT (˜25° C.) or 80° C.

[5] = Solid-state stability of Form III
Description: The solid-state stability of Compound 1, Form III was examined in duplicate (sample 1 and sample 2) for 7 days under the conditions below and the resultant solids analyzed by XRPD: • 40° C./75% relative humidity (open); and • 60° C. (capped).
The solid-state stability of Compound 1, Form III was also examined for 3 months under the conditions below: • 40° C./75% relative humidity; and • 25° C./60% relative humidity

[6] = Approximate solubility, solvent addition method, visual assessment
Description: The approximate solubility of the initial solid was determined using a solvent addition method via visual assessment of samples.
Values are rounded to nearest whole number and reported as “<” if dissolution was not observed, and as “>” if dissolution occurred after addition of first aliquot.

hygroscopicity ([1]; DVS): non-hygroscopic | crystal Form after DVS testing ([1]; XRPD before and after DVS): remained unchanged | weight gain (DVS) ([1]; up to 90% RH, 25° C.): < 0.5% | Solubility ([2]; FaSSGF, pH 1.6, pH at 24 h 1.7): <LOQ | Solubility ([2]; pH 5.8 Buffer, pH at 24 h 5.8): <LOQ | Solubility ([2]; pH 6.5 Buffer, pH at 24 h 6.6): <LOQ | solubility at 1 h ([2]; FaSSIF, pH 6.5): 6 µg/mL (≈ 15.6 µM) | solubility at 4 h ([2]; FaSSIF, pH 6.5): 5 µg/mL (≈ 13 µM) | solubility at 24 h ([2]; FaSSIF, pH 6.5, pH at 24 h 6.5): 7 µg/mL (≈ 18.3 µM) | solubility at 1 h ([2]; FaSSIF-V2, pH 6.5): 4 µg/mL (≈ 10.4 µM) | solubility at 4 h ([2]; FaSSIF-V2, pH 6.5): 4 µg/mL (≈ 10.4 µM) | solubility at 24 h ([2]; FaSSIF-V2, pH 6.5, pH at 24 h 6.6): 4 µg/mL (≈ 10.4 µM) | solubility at 1 h ([2]; FeSSIF, pH 5.0): 73 µg/mL (≈ 190 µM) | solubility at 4 h ([2]; FeSSIF, pH 5.0): 75 µg/mL (≈ 196 µM) | solubility at 24 h ([2]; FeSSIF, pH 5.0, pH at 24 h 5.0): 90 µg/mL (≈ 235 µM) | solubility at 1 h ([2]; FeSSIF-V2, pH 5.8): 120 µg/mL (≈ 313 µM) | solubility at 4 h ([2]; FeSSIF-V2, pH 5.8): 200 µg/mL (≈ 522 µM) | solubility at 24 h ([2]; FeSSIF-V2, pH 5.8, pH at 24 h 5.9): 180 µg/mL (≈ 469 µM) | crystal form after grinding [3]: remained unchanged | crystallinity after grinding [3]: decreased slightly | solid-state stability ([5]; 3 months, 40° C./75% relative humidity and 25° C./60% relative humidity): stable | solid-state stability ([5]; 7 days, 40° C./75% relative humidity (open) and 60° C. (capped)): chemically and physically stable
SMILES: C=CC(=O)N1CCC[C@@H](c2c(F)cc(C(N)=O)c3[nH]c4c(c23)CCCCC4)C1 [Form III, (S)-1-(1-acryloylpiperidin-3-yl)-2-fluoro-5,6,7,8,9,10-hexahydrocyclohepta[b]indole-4-carboxamide]
relative stability of crystal forms [4]: most stable Form; also recorded: more stable than Form I

Solubility ([6]; 1,4-dioxane): ~20000 µg/mL (≈ 52200 µM) | Solubility ([6]; 1,4-dioxane, organic solvent or mixture, thermodynamic from solid, 1,4-dioxane, read-out: Solubility): > 20000 µg/mL | Solubility ([6]; 2-butanone (MEK), organic solvent or mixture, thermodynamic from solid, 2-Butanone (MEK), read-out: Solubility): ~8300 µg/mL (≈ 21600 µM) | Solubility ([6]; 2-propanol (IPA), organic solvent or mixture, thermodynamic from solid, 2-Propanol (IPA), read-out: Solubility): ~4200 µg/mL (≈ 11000 µM) | Solubility ([6]; Dimethyl sulfoxide (DMSO)): >250000 µg/mL | Solubility ([6]; Tetrahydrofuran (THF)): ~25000 µg/mL (≈ 65200 µM) | Solubility ([6]; Water): <600 µg/mL | Solubility ([6]; acetone, organic solvent or mixture, thermodynamic from solid, Acetone, read-out: Solubility): ~7100 µg/mL (≈ 18500 µM) | Solubility ([6]; acetonitrile, organic solvent or mixture, thermodynamic from solid, Acetonitrile, read-out: Solubility): ~1700 µg/mL (≈ 4430 µM) | Solubility ([6]; dimethyl sulfoxide (DMSO), organic solvent or mixture, thermodynamic from solid, Dimethyl sulfoxide (DMSO), read-out: Solubility): > 250000 µg/mL | Solubility ([6]; ethanol, organic solvent or mixture, thermodynamic from solid, Ethanol, read-out: Solubility): ~5000 µg/mL (≈ 13000 µM) | Solubility ([6]; ethyl acetate, organic solvent or mixture, thermodynamic from solid, Ethyl acetate, read-out: Solubility): ~2000 µg/mL (≈ 5220 µM) | Solubility ([6]; isopropyl acetate, organic solvent or mixture, thermodynamic from solid, Isopropyl acetate, read-out: Solubility): ~1500 µg/mL (≈ 3910 µM) | Solubility ([6]; methanol, organic solvent or mixture, thermodynamic from solid, Methanol, read-out: Solubility): ~7100 µg/mL (≈ 18500 µM) | Solubility ([6]; n-Heptane): <600 µg/mL | Solubility ([6]; n-butanol (NBA), organic solvent or mixture, thermodynamic from solid, n-Butanol (NBA), read-out: Solubility): ~2300 µg/mL (≈ 6000 µM) | Solubility ([6]; n-heptane, organic solvent or mixture, thermodynamic from solid, n-Heptane, read-out: Solubility): < 600 µg/mL | Solubility ([6]; tetrahydrofuran (THF), organic solvent or mixture, thermodynamic from solid, Tetrahydrofuran (THF), read-out: Solubility): > 20000 µg/mL | Solubility ([6]; toluene, organic solvent or mixture, thermodynamic from solid, Toluene, read-out: Solubility): ~1300 µg/mL (≈ 3390 µM) | Solubility ([6]; water, thermodynamic from solid, Water, read-out: Solubility): < 600 µg/mL
SMILES: C=CC(=O)N1CCC[C@@H](c2c(F)cc(C(N)=O)c3[nH]c4c(c23)CCCCC4)C1 [starting material, (S)-1-(1-acryloylpiperidin-3-yl)-2-fluoro-5,6,7,8,9,10-hexahydrocyclohepta[b]indole-4-carboxamide]
